For one series, the system named is A549. Nature of the series: Antiproliferative activity against human A549 cells after 96 hrs by MTT assay. The class given is functional, cell-based. To be noted: A549, 96 h.
For the next series, the system named is HCT-8. As to the kind of experiment: Antiproliferative activity against human HCT8 cells after 96 hrs by MTT assay. The class given is functional, cell-based. To be noted: HCT-8, 96 h. (In general: Formazan colour is commonly taken as a measure of viable cells.)
The test system of the next series is Bel-7402. As to the kind of experiment: Antiproliferative activity against human Bel7402 cells after 96 hrs by MTT assay. The class given is functional, cell-based. The conditions noted are these: Bel-7402, 96 h.
A further series has as its system A2780. As to the kind of experiment: Antiproliferative activity against human A2780 cells after 96 hrs by MTT assay. The class given is functional, cell-based. The conditions noted are these: A2780, 96 h.
The subject of series [1] is BGC-823. Nature of the series: Antiproliferative activity against human BGC823 cells after 96 hrs by MTT assay. The class given is functional, cell-based. The conditions noted are these: BGC-823, 96 h.
Series [2] concerns BGC-823. As to the kind of experiment: Antitumor activity against human BGC823 cells xenografted in BALB/c nude mouse assessed as tumor growth inhibition at 50 mg/kg, ip administered once in a week for two weeks starting from 6 days post tumor transplantation measured 27 to 30 days post tumor transplantation relative to control. The class given is functional. The conditions noted are these: BGC-823, ip, read-out: TGI. In general terms: In xenograft studies the graft and the host belong to different species.

For series [3], the system named is Mus musculus. As to the kind of experiment: Toxicity in BALB/c nude mouse xenografted with human BGC823 cells assessed as body weight at 50 mg/kg, ip administered once in a week for two weeks starting from 6 days post tumor transplantation and measured every 3 days during compound dosing for 15 days (reference value: 23.6 g). The class given is organism-based. The conditions noted are these: in vivo, 360 h.

Series [4] concerns Mus musculus. As to the kind of experiment: Toxicity in BALB/c nude mouse xenografted with human BGC823 cells assessed as mouse survival at 50 mg/kg, ip administered once in a week for two weeks starting from 6 days post tumor transplantation. The class given is organism-based. To be noted: in vivo, 144 h.
In series [5] the test system is H22. Nature of the series: Antitumor activity against mouse H22 cells implanted in Kunming mouse assessed as tumor growth inhibition at 24 mg/kg, ip administered once in every 3 days totally for 3 times relative to control. The class given is functional. To be noted: 72 h, read-out: TGI.
Series [6] deals with Mus musculus. Nature of the series: Toxicity in Kunming mouse implanted with mouse H22 cells assessed as body weight at 24 mg/kg, ip administered once in every three days totally for 3 times (reference value: 32.5 g). The class given is organism-based. The conditions noted are these: in vivo.
Series [7] concerns Mus musculus. As to the kind of experiment: Toxicity in Kunming mouse implanted with mouse H22 cell assessed as survival at 40 mg/kg, ip administered on day 1 and day 5. The class given is organism-based. The conditions noted are these: in vivo.
Series [8] relates to Mus musculus. Nature of the series: Toxicity in Kunming mouse implanted with mouse H22 cells assessed as body weight at 40 mg/kg, ip administered on day 1 and day 5 (reference value: 32.5 g). The class given is organism-based. To be noted: in vivo.
The subject of series [9] is H22. As to the kind of experiment: Antitumor activity against mouse H22 cells implanted in Kunming mouse assessed as tumor growth inhibition at 100 mg/kg, ip administered once relative to control. The class given is functional. The conditions noted are these: read-out: TGI.
Series [10] has as its system H22. Nature of the series: Antitumor activity against mouse H22 cells implanted in Kunming mouse assessed as tumor growth inhibition at 40 mg/kg, ip administered on day 1 and day 5 relative to control relative to control. The conditions noted are these: read-out: TGI. The class given is functional.
The subject of series [11] is Mus musculus. Nature of the series: Toxicity in Kunming mouse implanted with mouse H22 cells assessed as body weight at 60 mg/kg, ip administered twice (reference value: 31.1 g). To be noted: in vivo. The class given is organism-based.
The subject of series [12] is H22. As to the kind of experiment: Antitumor activity against mouse H22 cells implanted in Kunming mouse assessed as tumor growth inhibition at 60 mg/kg, ip administered twice relative to control. The class given is functional. The conditions noted are these: read-out: TGI.
Series [13] relates to Mus musculus. Nature of the series: Toxicity in Kunming mouse implanted with mouse H22 cells assessed as body weight at 100 mg/kg, ip administered once (reference value: 31.1 g). The class given is organism-based. The conditions noted are these: in vivo.
The subject of series [14] is H22. As to the kind of experiment: Antitumor activity against mouse H22 cells implanted in Kunming mouse assessed as tumor growth inhibition at 100 mg/kg, ip administered twice relative to control. The conditions noted are these: read-out: TGI.

IC50, inhibition in vivo and Activity data for 18 compounds are collected here from ChEMBL document CHEMBL4000174, “Synthesis and antitumor activity of novel substituted uracil-1'(N)-acetic acid ester derivatives of 20(S)-camptothecins” (Eur J Med Chem, 2017).

Take `CCc1c2c(nc3ccccc13)-c1cc3c(c(=O)n1C2)COC(=O)[C@@]3(CC)OC(=O)Cn1cc(Br)c(=O)[nH]c1=O`: the IC50 (usually the concentration at which inhibition is half-maximal) in the series on A549 is 88 nM; with HCT-8, below 2 nM; in the series with Bel-7402, 12 nM; in the series on A2780, 182 nM; in the series with BGC-823 [1] it was 31 nM.

Turning to `CC[C@@]1(OC(=O)Cn2cc(I)c(=O)[nH]c2=O)C(=O)OCc2c1cc1n(c2=O)Cc2cc3c([N+](=O)[O-])cccc3nc2-1`, the half-maximal inhibitory concentration (IC50) is 117 nM in the series on A549; 14 nM in the series with HCT-8; 13 nM in the series on Bel-7402; 200 nM in the series with A2780; 16 nM in the series on BGC-823 [1].

As for `CCc1c2c(nc3ccc(OC(=O)N4CCC(N5CCCCC5)CC4)cc13)-c1cc3c(c(=O)n1C2)COC(=O)[C@]3(O)CC` [IRINOTECAN], the inhibition in vivo at 50 mg/kg in the series on BGC-823 [2] was determined as 94.1%. The Activity in the series with Mus musculus [3] is 20.5 g; in the series on Mus musculus [4], “Non-Toxic”.

Consider `CC[C@@]1(OC(=O)Cn2cc(Br)c(=O)[nH]c2=O)C(=O)OCc2c1cc1n(c2=O)Cc2cc3c([N+](=O)[O-])cccc3nc2-1`, for which the half-inhibitory concentration (IC50) with A549 was 90 nM; in the series on HCT-8, 13 nM; in the series on Bel-7402, 13 nM; in the series on A2780 it was 183 nM; in the series on BGC-823 [1], 15 nM.

`CCc1c2c(nc3ccccc13)-c1cc3c(c(=O)n1C2)COC(=O)[C@@]3(CC)OC(=O)Cn1ccc(=O)[nH]c1=O`: the IC50 in the series with A549 was found to be 65 nM; in the series on HCT-8 it was 2 nM; with Bel-7402, 14 nM; with A2780 it was 86 nM; in the series on BGC-823 [1], 17 nM.

Take `CC[C@@]1(OC(=O)Cn2cc(Cl)c(=O)[nH]c2=O)C(=O)OCc2c1cc1n(c2=O)Cc2cc3c([N+](=O)[O-])cccc3nc2-1`: the IC50 was determined as 75 nM in the series on A549; 13 nM in the series with HCT-8; 16 nM in the series on Bel-7402; 221 nM with A2780; 17 nM in the series on BGC-823 [1].

`CCc1c2c(nc3ccccc13)-c1cc3c(c(=O)n1C2)COC(=O)[C@@]3(CC)OC(=O)Cn1cc(I)c(=O)[nH]c1=O`: the concentration for half-maximal inhibition (IC50) was determined as 710 nM in the series with A549; 586 nM in the series with HCT-8; 4510 nM with Bel-7402; 669 nM in the series on A2780; 2570 nM with BGC-823 [1].

As to `CC(=O)O[C@H]1C(=O)[C@@]2(C)[C@H]([C@H](OC(=O)c3ccccc3)[C@]3(O)C[C@H](OC(=O)[C@H](O)[C@@H](NC(=O)c4ccccc4)c4ccccc4)C(C)=C1C3(C)C)[C@]1(OC(C)=O)CO[C@@H]1C[C@@H]2O` [PACLITAXEL], the inhibition in vivo at 24 mg/kg in the series on H22 [5] was 73.8%. The Activity with Mus musculus [6] amounted to 18.9 g.

`CC[C@@]1(OC(=O)Cn2cc(F)c(=O)[nH]c2=O)C(=O)OCc2c1cc1n(c2=O)Cc2cc3ccccc3nc2-1`: the IC50 came to 126 nM in the series with A549; 109 nM in the series on HCT-8; 86 nM with Bel-7402; 68 nM in the series on A2780; 64 nM with BGC-823 [1].

`CC[C@@]1(O)C(=O)OCc2c1cc1n(c2=O)Cc2cc3ccccc3nc2-1` [CAMPTOTHECIN]: the 50% inhibitory concentration (IC50) with A549 is 6 nM; in the series with HCT-8, 24 nM; in the series with Bel-7402 it was 14 nM; with A2780 it was 29 nM; in the series with BGC-823 [1], 57 nM.

For the compound `CCc1c2c(nc3ccccc13)-c1cc3c(c(=O)n1C2)COC(=O)[C@@]3(CC)OC(=O)Cn1cc(Cl)c(=O)[nH]c1=O`, the Activity entry in the series on Mus musculus [7] is given as “Non-Toxic”; in the series on Mus musculus [8] it was 27 g; in the series with Mus musculus [11], 26.2 g; in the series with Mus musculus [13], 25.2 g. The IC50 with A549 was 38 nM; in the series with HCT-8, 2 nM; in the series on Bel-7402 it was 12 nM; in the series on A2780 it was 670 nM; in the series on BGC-823 [1], 17 nM. The inhibition in vivo at 100 mg/kg in the series on H22 [9] turned out to be 58.7%. Also, in the series on H22 [10], the inhibition in vivo at 40 mg/kg is 46.2%. Further, the inhibition in vivo at 60 mg/kg in the series on H22 [12] turned out to be 76.6%.

For `CC[C@@]1(OC(=O)Cn2cc(Cl)c(=O)[nH]c2=O)C(=O)OCc2c1cc1n(c2=O)Cc2cc3ccccc3nc2-1`, the half-maximal inhibitory concentration (IC50) with A549 is 54 nM; in the series with HCT-8, 13 nM; in the series on Bel-7402, 17 nM; in the series with A2780, 110 nM; in the series with BGC-823 [1], 16 nM.

As for `CC[C@@]1(OC(=O)Cn2cc(F)c(=O)[nH]c2=O)C(=O)OCc2c1cc1n(c2=O)Cc2cc3c([N+](=O)[O-])cccc3nc2-1`, the IC50 with A549 worked out at 81 nM; in the series with HCT-8, 13 nM; in the series on Bel-7402 it was 16 nM; in the series on A2780, 115 nM; with BGC-823 [1] it was 17 nM.

For `CC[C@@]1(OC(=O)Cn2cc(Br)c(=O)[nH]c2=O)C(=O)OCc2c1cc1n(c2=O)Cc2cc3ccccc3nc2-1`, the Activity result is on record as “Non-Toxic” in the series on Mus musculus [7] and 32.1 g in the series with Mus musculus [8]. The IC50 with A549 is 48 nM; with HCT-8, 6 nM; in the series with Bel-7402, 12 nM; in the series with A2780, 160 nM; with BGC-823 [1] it was 16 nM. The inhibition in vivo at 40 mg/kg with H22 [10] came out at 6.39%.

For the compound `O=P1(N(CCCl)CCCl)NCCCO1` (centres undefined) [CYCLOPHOSPHAMIDE ANHYDROUS], in the series on H22 [14], the inhibition in vivo at 100 mg/kg is 93.7%.

As for `CC[C@@]1(OC(=O)Cn2cc(I)c(=O)[nH]c2=O)C(=O)OCc2c1cc1n(c2=O)Cc2cc3ccccc3nc2-1`, the half-inhibitory concentration (IC50) in the series with A549 is 6400 nM; in the series on HCT-8, 957 nM; in the series with Bel-7402 it was 3280 nM; in the series with A2780, 750 nM; in the series with BGC-823 [1], 7890 nM.

Take `CC[C@@]1(OC(=O)Cn2ccc(=O)[nH]c2=O)C(=O)OCc2c1cc1n(c2=O)Cc2cc3ccccc3nc2-1`: the IC50 in the series on A549 is 46 nM; in the series on HCT-8 it was 14 nM; in the series on Bel-7402 it was 18 nM; with A2780, 160 nM; in the series with BGC-823 [1], 17 nM.

For the compound `CC[C@@]1(OC(=O)Cn2ccc(=O)[nH]c2=O)C(=O)OCc2c1cc1n(c2=O)Cc2cc3c([N+](=O)[O-])cccc3nc2-1`, the Activity entry was “Non-Toxic” in the series with Mus musculus [7] and 32 g with Mus musculus [8]. The concentration for half-maximal inhibition (IC50) with A549 was found to be 51 nM; with HCT-8, 14 nM; with Bel-7402 it was 18 nM; in the series with A2780, 73 nM; with BGC-823 [1] it was 17 nM. Further, the inhibition in vivo at 40 mg/kg in the series on H22 [10] was 11%.
